Measurements reported in patent US6441206B1, “Use of organic acid esters in dietary fat” (Raisio Benecol Ltd., priority 1997, dated 2002).

What was measured:
[1] = thermal resistance of light spread at 45° C.; assay type: physicochemical; conditions: fat component with 5% ester, 45° C. up to 4 hours, mixed after return to room temperature
Description: The polarity of the sterol/stanol esters described above is an extremely useful property. It is characteristic of compounds according to the invention, e.g. β-sitosterol dicarboxylic acid hemiesters and citrates that in lipid solutions (e.g. 2.5-5% of the fat component) they promote the mixing of the lipid and the water. […] The prepared light spread also lasted better than the comparative sample when heated to 45° C. for up to 4 hours. By improved thermal resistance is meant that after 2 hours at 45° C., more oil had separated from the comparative sample than from the sterol-containing sample. Over the next 2 hours, the separation of oil from the comparative sample continued. In the sterol-containing spread, however, negative change had ceased.

cholesterol absorption [2] = conditions: cited from earlier work; for cholesterol absorption lowering effect: molar quantities of the fatty acid esters
[3] = solubility in alcohol (ethanol) and lipids; assay type: physicochemical
Source text: According to one preferred embodiment of the invention, β-sitosterols are esterified and sterol esters are hydrogenated to form stanols. […] This achieves the significant advantage that hydrogenation can be carried out at room temperature.
Di-β-sitosteryl citrate is formed in a heterogeneous reaction between citric acid and β-sitosterol, at the same reaction conditions as described in the previous section. The compound is separated from the sterol monocitrate on the basis of solubility, using ethanol extraction. The method is based on the fact that the solubility of sterol monocitrate in ethyl alcohol is ten times that of di-β-sitosteryl citrate.
A minimum of 7 ml of water was azeotropically distilled from the reaction mixture over 7-8 hours; as the conversion approached theoretical, upon cooling no lactic acid or plant sterols were crystallized from the reaction mixture. The cooled reaction mixture was a yellowish, viscose liquid. The toluene was removed from the reaction mixture in a vacuum (29 mmHg) at a temperature of 80-90° C. […] As a whole, the material obtained was useable and contained very little or no free plant sterols and/or lactic acid.

white male mice = conditions: 3.5 g dose per 1 kg live weight; cited from earlier work
[4] = system: triglyceride content of the blood serum; conditions: rats; cited from earlier work
[5] = system: triglyceride content of liver; conditions: cited from earlier work
total serum cholesterol = conditions: daily supply of plant sterol 2-3 g; cited from earlier work
cholesterol absorption [6] = conditions: infusion test; cited from earlier work
blood cholesterol = conditions: in vivo; cited from earlier work
[7] = soluble matter in spirit vinegar (10 weight-% acetic acid); assay type: physicochemical; conditions: spirit vinegar with 10 weight-% acetic acid; 12 hours standing without stirring
Source text: 6.80 g β-sitosterol citrate from example 12 90.7 g Rajamäki Spirit Vinegar (Primalco Oy, Nurmijärvi), containing 10 weight-% acetic acid.

Which results are given for `CCC(CCC(C)C1CCC2C3CC=C4CC(OC(=O)CCC(=O)O)CCC4(C)C3CCC12C)C(C)C` (stereo not drawn) [Example 3, β-sitosterol Hydrogen Succinate]?
changes in the sample after heating [1]: almost reversible; lowering of the cholesterol content of blood (cholesterol absorption [2]; compared with phytosterol monocarboxyl acid esters): as effectively as the phytosterol monocarboxyl acid esters

Which results are given for `CC[C@H](CC[C@@H](C)[C@H]1CC[C@H]2[C@@H]3CC=C4C[C@@H](OC(=O)C(C)O)CC[C@]4(C)[C@H]3CC[C@]12C)C(C)C` (stereo partly drawn) [Example 19, β-sitosterol Lactate]?
solubility in alcohol ([3]; in words): highly soluble in alcohol; solubility in lipids and ethanol ([3]; reaction product, viscose liquid at 60-100° C.): soluble in lipids and ethanol

Which “cholesterol absorption lowering effect” value (cholesterol absorption [2]) does the source give for `CC(=O)O` [acetate] here?
The value was “equally as effective”.

For `CC[C@H](CC[C@@H](C)[C@H]1CC[C@H]2[C@@H]3C[C@@H](OC=O)[C@@]4(O)C[C@@H](OC=O)CC[C@]4(C)[C@H]3CC[C@]12C)C(C)C` [sitostane-3β-, 5α-, 6β-triol-3,6-diformiate], which acute toxicity (white male mice) is on record?
The acute toxicity was “did not show toxicity”.

What about the “lowering of triglyceride content of the blood serum” value [4] of the same compound?
The value was “moderately lower”.

And the “lowering of triglyceride content of liver” value ([5]; guinea pigs)?
The value was 54%.

Which total serum cholesterol (total serum cholesterol) does the source give for `CC[C@H](CC[C@@H](C)[C@H]1CC[C@H]2[C@@H]3CC[C@H]4C[C@@H](O)CC[C@]4(C)[C@H]3CC[C@]12C)C(C)C` [sitostanol] here?
The total serum cholesterol was “decrease in the total serum cholesterol”.

Which “inhibition of cholesterol absorption” value (cholesterol absorption [6]) does the source give for `CC[C@H](CC[C@@H](C)[C@H]1CC[C@H]2[C@@H]3CC[C@H]4C[C@@H](O)CC[C@]4(C)[C@H]3CC[C@]12C)C(C)C` [β-sitostanol] here?
Its value is 83%.

With `CC[C@H](CC[C@@H](C)[C@H]1CC[C@H]2[C@@H]3CC=C4C[C@@H](O)CC[C@]4(C)[C@H]3CC[C@]12C)C(C)C` [β-sitosterol] as the compound, how does the “inhibition of cholesterol absorption” value (cholesterol absorption [6]) read?
Its value is 50%.

And the “response in this test” value ([5]; source material as comparison, which test is meant is not clear)?
The value was “did not give a positive response”.

For decanoate, which “cholesterol absorption lowering effect” value (cholesterol absorption [2]) is on record?
The value was “equally as effective”.

For oleate, which “cholesterol absorption lowering effect” value (cholesterol absorption [2]) is on record?
The value was “equally as effective”.

For “soy sterol-2-carbamate glutaric acid K^+—salt”, which “lowering blood cholesterol concentrations” value (blood cholesterol) is on record?
Its value is “proved to lower blood cholesterol concentrations”.

Which “amount of the sterol citrate dissolved” value [7] does the source give for β-sitosterol citrate [Example 12] here?
Its value is 0.74%.
